The target of test [1] is Tyrosine-protein kinase ABL1 (Homo sapiens, UniProt P00519, T315I). Put plainly: Inhibition of human ABL1 T315I mutant (229 to 499 residues) using ABLtide as substrate preincubated for 2 hrs followed by ATP addition and measured every 2 mins for […] by spectrophotometric analysis.
Test [2] concerns the target Tyrosine-protein kinase ABL1 (Homo sapiens, UniProt P00519). Put plainly: Inhibition of human N-terminal his tagged native ABL1 (229 to 499 residues) expressed in Sf9 cells using ABLtide as substrate preincubated for 2 hrs followed by ATP addition and measured every 2 mins for […] by spectrophotometric analysis.
The test system of test [3] is BaF3. The experiment in a line: cells. Conditions: Mus musculus, BaF3, 72 h.
Test [4] deals with BaF3. Put plainly: cells. As to conditions: Mus musculus, BaF3, 72 h. The source holds these as a separate data set.
Test [5] has as its system BaF3. The experiment in a line: cells. As to conditions: Mus musculus, BaF3, 72 h. The source holds these as a separate data set.
For the next test, the target named is Crk-like protein (Mus musculus, UniProt P47941, T315I). The experiment in a line: Inhibition of CrkL in mouse BaF3 cells harbouring BCR-ABL1 T315I mutant measured after 6 hrs by immunoblotting analysis. The format is cell-based. In general terms: In western blotting, separated proteins are transferred to a membrane and probed.
The test system of test [6] is BaF3. The experiment in a line: cells. As to conditions: Mus musculus, BaF3, 72 h. This is another data set of the same source.
Test [7] deals with BaF3. The experiment in a line: cells. As to conditions: Mus musculus, BaF3, 72 h. The source holds these as a separate data set.
The subject of test [8] is BaF3. Put plainly: cells. As to conditions: Mus musculus, BaF3, 72 h. This is another data set of the same source.
For test [9], the system named is BaF3. Put plainly: cells. As to conditions: Mus musculus, BaF3, 72 h. The source holds these as a separate data set.
Test [10] has as its system BaF3. Put plainly: cells. As to conditions: Mus musculus, BaF3, 72 h. The source holds these as a separate data set.
In test [11] the test system is BaF3. Put plainly: cells. Conditions: Mus musculus, BaF3, 72 h. The source holds these as a separate data set.
For test [12], the system named is BaF3. Put plainly: cells. Conditions: Mus musculus, BaF3, 72 h. This is another data set of the same source.
Test [13] has as its system BaF3. The experiment in a line: cells. Conditions: Mus musculus, BaF3, 72 h. This is another data set of the same source.
The test system of test [14] is BaF3. Put plainly: cells. As to conditions: Mus musculus, BaF3, 72 h. This is another data set of the same source.
Test [15] deals with BaF3. The experiment in a line: cells. Conditions: Mus musculus, BaF3, 72 h. The source holds these as a separate data set.
In test [16] the test system is BaF3. The experiment in a line: cells. Conditions: Mus musculus, BaF3, 72 h. The source holds these as a separate data set.
Test [17] deals with BaF3. Put plainly: cells. Conditions: Mus musculus, BaF3, 72 h. This is another data set of the same source.
Test [18] concerns BaF3. Put plainly: Antitumor activity against mouse BaF3 cells harbouring BCR-ABL1 T315I mutant xenografted in Balb/c mouse model assessed as prolongation of animal survival at 100 mg/kg, po administered twice daily for 21 days. The test is classed as functional, organism-based. Conditions: time 21.0 day.
Test [19] concerns BaF3. Put plainly: cells. As to conditions: Mus musculus, BaF3, 72 h. This is another data set of the same source.

The source made the active and inactive calls. No cut-off for these calls is given here. Bounds are passed on as bounds.

Sequence of Crk-like protein (P47941 whole entry, looked up, stated change not applied): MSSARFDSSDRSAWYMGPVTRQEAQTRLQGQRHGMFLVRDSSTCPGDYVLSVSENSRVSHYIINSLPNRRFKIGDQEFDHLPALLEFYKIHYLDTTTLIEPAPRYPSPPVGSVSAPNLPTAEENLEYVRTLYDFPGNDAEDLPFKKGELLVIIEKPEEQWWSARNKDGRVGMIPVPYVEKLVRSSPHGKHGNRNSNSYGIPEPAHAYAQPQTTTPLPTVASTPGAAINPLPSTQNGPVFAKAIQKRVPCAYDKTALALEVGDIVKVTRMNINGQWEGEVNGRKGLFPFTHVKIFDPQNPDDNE

As for `CC(C)(C)c1cc(NC(=O)Nc2cccc(Cl)c2Cl)n(-c2ccc3c(c2)C[C@@H](C(=O)O)NC3)n1`, the half-maximal inhibitory concentration (IC50) (commonly the point on the concentration scale where inhibition reaches its midpoint) in test [1] was 773 nM; in test [2] it was 57 nM.
On the same counts, the results for `CNC(=O)c1cc(Oc2ccc(NC(=O)Nc3cc(C(C)(C)C)nn3C)c(F)c2)ccn1` are 80 nM and 88 nM.
As to `CNC(=O)c1cc(Oc2ccc(NC(=O)Nc3cc(C(C)(C)C)nn3-c3ccc4c(c3)CCNC4)c(F)c2)ccn1`, the IC50 in test [1] was 17 nM; in test [2] it was 9 nM.
In [1], `CC(C)(C)c1cc(NC(=O)Nc2cccc(Cl)c2Cl)n(-c2ccc3ncccc3c2)n1` gave an IC50 of 711 nM.
On to `Cc1nc(Nc2ncc(C(=O)Nc3c(C)cccc3Cl)s2)cc(N2CCN(CCO)CC2)n1` [DASATINIB ANHYDROUS], for which the IC50 in the test with BaF3 [3] was 65 nM; in the test on BaF3 [4], 2 nM; in the test with BaF3 [5] it was 0.4 nM; against Crk-like protein, more than 5000 nM; in the test with BaF3 [6], 7.3 nM; in the test on BaF3 [7] it was 1.2 nM. Also, the concentration for half-maximal inhibition (IC50) in the test with BaF3 [8] came out at 1.1 nM; with BaF3 [9], 2.7 nM; with BaF3 [10] it was 3800 nM; in the test with BaF3 [11], 8 nM; with BaF3 [12] it was 8 nM; in the test on BaF3 [13] it was 2 nM. Besides, the 50% inhibitory concentration (IC50) is 0.3 nM in the test on BaF3 [14], 1 nM in the test with BaF3 [15], 2.8 nM with BaF3 [16] and 2.3 nM in the test with BaF3 [17].
As for `Cc1ccc(NC(=O)c2ccc(CN3CCN(C)CC3)cc2)cc1Nc1nccc(-c2cccnc2)n1` [IMATINIB], the outcome with BaF3 [18] was inactive.
Turning to `Cc1cn(-c2cc(NC(=O)c3ccc(C)c(Nc4nccc(-c5cccnc5)n4)c3)cc(C(F)(F)F)c2)cn1` [NILOTINIB], the figures for the 50% inhibitory concentration (IC50) in the test with BaF3 [4], on Crk-like protein and with BaF3 [10] were 95 nM, more than 5000 nM and 9500 nM, respectively.
On to `Cc1cc(Nc2cc(N3CCN(C)CC3)nc(Sc3ccc(NC(=O)C4CC4)cc3)n2)n[nH]1` [TOZASERTIB], for which the half-maximal inhibitory concentration (IC50) stood at 88 nM in the test with BaF3 [3]; 190 nM in the test on BaF3 [4]; 104 nM with BaF3 [5]; 110 nM in the test with BaF3 [6]; 160 nM in the test on BaF3 [7]; 65 nM with BaF3 [8]. Further, the IC50 with BaF3 [9] was 130 nM; in the test with BaF3 [11], 84 nM; with BaF3 [12], 200 nM; in the test on BaF3 [13] it was 80 nM; in the test with BaF3 [19], 74 nM; with BaF3 [14] it was 130 nM. The half-inhibitory concentration (IC50) with BaF3 [15] stood at 190 nM; with BaF3 [16], 180 nM; in the test on BaF3 [17] it was 84 nM.

The values are drawn from ChEMBL document CHEMBL5678804 (Cancer Cell, 2011).
